Results: patent US20220259164A1, “USE OF AMINOTHIOL COMPOUNDS AS CEREBRAL NERVE OR HEART PROTECTIVE AGENT” (SHANGHAI KECHOW PHARMA, INC., priority 2019, published 2022)
Where “and” joins values, the source holds several entries; their conditions need not be identical. Equal values may be shown once. Where a SMILES comes first, the peptide text is derived from it. [ ]: non-standard residue; d: D form. NMeC = CN[C@@H](CS)C(=O)O

How the values were obtained:
[1] = test system: SD rat cerebral ischemia reperfusion injury model (MCAO); assay: Neurobehavioral evaluation (5-point Longa/Bederson score) in rat ischemic stroke model (MCAO); format: in vivo; parameters: key to Neurological function score After modeling: Longa/Bederson 5-point scale (0-4); higher = more severe deficit; details: for Neurological function score After modeling: individual rats
Excerpt: Healthy male SPF grade SD rats (body weight 250-300 g) were selected. […] (2) A midline neck incision was made to expose the right common carotid artery, internal carotid artery and external carotid artery. A 6-0 silk thread was used to ligate the distal end of the external carotid artery at 4 mm from the bifurcation of the common carotid artery, another 6-0 silk thread was inserted at the external carotid artery, and a slipknot was tied near the bifurcation of the common carotid artery. (3) An arterial clamp was used to clamp the common carotid artery. […] (4) The thread embolism was removed 90 min after ischemia, the proximal end of the external artery was ligated with a 6-0 silk thread, the neck wound was sutured with a 3-0 silk thread, the wound was disinfected with povidone iodine, the rats were placed on a heating pad, and after being awake, they were placed in a constant temperature rearing box for rearing. […] The experimental animals were scored for signs of neurological function deficit before and after modeling. The scoring standard was given by reference to the 5-point system of Longa and Bederson. The scoring was performed 24 h after the animals were awake from anesthesia. The higher the score, the more severe the behavioral disorder of the animals. 0 point: No nerve damage symptoms […] Inability to fully extend the contralateral front paw […] Turning in a circle to the opposite side […] Falling over to the opposite side 4 points: Inability to walk spontaneously, and loss of consciousness In a manner same as in Example 1, experimental animals were selected, except that the experiment was divided into seven groups (i.e., groups […], and G, among which groups C, D, and E were given different dosages of administration from Example 1, group F was given edaravone, and group G was given amifostine).

[2] = test system: rat myocardial infarction model (coronary ligation 30 min, reperfusion); assay: Myocardial infarction model: myocardial enzyme LDH in serum; format: in vivo; details: for Improvement rate (%) of LDH: compared with model group; for LDH: serum, x ± s, n = 10
Protocol: 1. The rats were grouped and administered according to the following methods (2) Compound B (i.v.) at 100 mg/kg (3) Compound A (i.v.) at 100 mg/kg (4) Compound A (oral) at 500 mg/kg (5) Isosorbide mononitrate injection (i.v.) at 1 mg/kg (equivalent to clinical equivalent dose). There were 10 rats in each group, and the rats were administered intravenously immediately after 30 min of ischemia and reperfusion, i.v. 10% 1 min+i.v. drip 90% 30 min. The administration volume was 2 ml/rat. Compound A (oral) at 500 mg/kg was administered intragastrically 2 h after reperfusion when the animal was awake, and the administration volume was 10 ml/kg. Note: Compounds A and B used in this example were in the form of hydrochloride salts thereof. Given intraperitoneal injection of 3% sodium pentobarbital at 60 mg/kg for general anesthesia, the rats were fixed on an operating table in the supine position. The surgical field of the anterolateral chest was depilated and routinely disinfected. The skin and muscular layer were cut open, purse-string suture was performed on the muscular layer, the chest was opened on the left at the fourth intercostal space, and the heart was pulled out with a ring-shaped retractor. At the position of the anterior descending coronary artery 3-4 mm below the left atrial appendage, a 6/0 damage-free silk thread was threaded, and a nylon thread with a diameter of 1.6 mm was juxtaposed and ligated together with the anterior descending coronary artery, while the other end was left outside the body for later use. The heart was placed back into the chest cavity, the air in the chest cavity was emptied, and the chest cavity was closed. 30 min after ligation, the nylon thread was carefully removed for reperfusion. Compared with the normal lead II electrocardiogram (ECG-II), ST segment elevation in ECG-II by 0.1 mV or more 30 min after coronary artery ligation was regarded as successful ischemia. […] Blood was collected from the rats through the abdominal aorta and centrifuged at 3000 rpm×10 min at 4° C., and the upper serum was taken to determine LDH by enzyme-linked immunosorbent assay.

[3] = test system: bleomycin (BLM)-induced scleroderma mouse model; assay: Dermal fibrosis in bleomycin (BLM)-induced scleroderma mouse model (H-E staining); format: in vivo, mice; details: compound A (hydrochloride) 600 mg/kg/d by gavage or compound B (trifluoroacetate) 200 mg/kg/d i.p., 28 days with BLM; compared with BLM model group
Excerpt: Materials: C57BL/6 female mice, weighing 20-25 g, were purchased from Shanghai SLAC Laboratory Animal Co., Ltd. Using a random number table method, 24 mice were divided into a blank control group (1), a scleroderma model group (2), a scleroderma+compound A treatment group (3), and a scleroderma+compound B treatment group (4), with 6 mice in each group. Bleomycin (BLM) was purchased from Sigma. An H-E staining kit was purchased from Beijing Solarbio Science & Technology Co., Ltd. Compound A used in this example was in the form of a hydrochloride thereof, and compound B was in the form of a trifluoroacetate thereof.
Method: The intended injection site (area 1 cm^2) of the mice was shaved using an electric shaver. The mice in groups (1) and (2) were intraperitoneally injected with PBS, the mice in group (3) were given compound A (600 mg/kg/d, dissolved in PBS) by gavage, and the mice in group (4) were intraperitoneally injected with compound B (200 mg/kg/d, dissolved in PBS). Immediately thereafter, the mice in group (1) were injected with PBS subcutaneously on the back, and the mice in groups (2) and (4) were injected with BLM (1 mg/ml, dissolved in PBS) subcutaneously on the back; and 15 min later, the mice in group (3) were injected with BLM (1 mg/ml, dissolved in PBS) subcutaneously on the back. After 28 days of continuous administration once a day, the animals were sacrificed on day 29 by cervical dislocation. Conventional iodine tincture was used to disinfect the back skin of the mice, and a local diseased skin tissue was surgically cut, fixed in 4% paraformaldehyde, embedded in paraffin, sectioned, and analyzed by H-E staining.

[4] = Example 2 group D: compound A (trifluoroacetate) 400 mg/kg p.o. 2.5 h before reperfusion, 400 mg/kg
[5] = Example 2 group E: compound A (trifluoroacetate) 800 mg/kg p.o. 2.5 h before reperfusion, 800 mg/kg
[6] = compound A (hydrochloride) i.v. 100 mg/kg
[7] = compound A (hydrochloride) oral 500 mg/kg
[8] = Example 2 group C: compound B (trifluoroacetate) 100 mg/kg i.p. 5 min before reperfusion, 100 mg/kg
[9] = compound B (hydrochloride) i.v. 100 mg/kg

| SMILES | % Behavioral improvement ([1]; Example 1 group E: compound A (trifluoroacetate) 1600 mg/kg p.o. 2.5 h before reperfusion, 1600 mg/kg) [%] | Neurological function score After modeling ([1]; Example 1 group E: compound A (trifluoroacetate) 1600 mg/kg p.o. 2.5 h before reperfusion, 24 h, 1600 mg/kg) | % Behavioral improvement [1, 4] [%] | Neurological function score After modeling [1, 4] | % Behavioral improvement [1, 5] [%] | Neurological function score After modeling [1, 5] | Improvement rate (%) of LDH [2, 6] [%] | LDH [2, 6] [U/L] | Improvement rate (%) of LDH [2, 7] [%] | LDH [2, 7] [U/L] | Collagen in the dermis and fat layer (H-E staining) [3] | Thickness of the dermis in the skin lesion area [3] | % Behavioral improvement ([1]; Example 1 group C: compound B (trifluoroacetate) 200 mg/kg i.p. 5 min before reperfusion, 200 mg/kg) [%] | Neurological function score After modeling ([1]; Example 1 group C: compound B (trifluoroacetate) 200 mg/kg i.p. 5 min before reperfusion, 24 h, 200 mg/kg) | % Behavioral improvement ([1]; Example 1 group D: compound B (trifluoroacetate) 200 mg/kg i.p. during ischemia and 200 mg/kg i.p. 5 min before reperfusion) [%] | Neurological function score After modeling ([1]; Example 1 group D: compound B (trifluoroacetate) 200 mg/kg i.p. during ischemia and 200 mg/kg i.p. 5 min before reperfusion, 24 h) | % Behavioral improvement [1, 8] [%] | Neurological function score After modeling [1, 8] | Improvement rate (%) of LDH [2, 9] [%] | LDH [2, 9] [U/L] |
| --- | --- | --- | --- | --- | --- | --- | --- | --- | --- | --- | --- | --- | --- | --- | --- | --- | --- | --- | --- | --- |
| CNC(=O)[C@H](CS)NC(=O)[C@H](CS)NC [Compound A, (R)-3-mercapto-N—((R)-3-mercapto-1-(methylamino)-1-oxoprop-2-yl)-2-(methylamino)propionamide] (H-[NMeC]-Cys-NHMe) | 77.8 | 1 (2×) and 0 | 46.99 | 2 (3×) and 1 (3×) | 59.01 | 1 (5×) and 2 | 19.9 | 1521.6 ± 353.6 | 25.8 | 1408 ± 308.7 | the collagen thickness in the dermis was significantly reduced and the fat layer was significantly thickened | could better reduce the thickness of the dermis at the skin lesion site |  |  |  |  |  |  |  |  |
| CNC(=O)[C@H](CS)NC(=O)[C@H](CS)NC(=O)[C@H](CS)NC [Compound B, (R)-3-mercapto-N—((R)-3-mercapto-1-(((R)-3-mercapto-1-(methylamino)-1-oxoprop-2-yl)amino)-1-oxoprop-2-yl)-2-(methylamino)propionamide] (H-[NMeC]-Cys-Cys-NHMe) |  |  |  |  |  |  |  |  |  |  | collagen proliferation in the dermis in the compound B treatment group was improved | reduced (p<0.01) | 66.7 | 0 and 1 (3×) and 2 | 66.7 | 1 | 29.32 | 1 and 2 (4×) and 3 | 22.2 | 1476.7 ± 282.4 |
